Measurements from US20240166596A1, “SULFAMOYL BENZENE DERIVATIVES AND USES THEREOF” (AphioTx Inc., priority 2021, published 2024).

Key:
Panx1 channel = biological target: T1, Panx1 channel (Mus musculus, UniProt Q9JIP4); assay: YO-PRO-1 dye uptake assay in BV-2 microglia-like cells (BzATP stimulation); type: cell-based; conditions: BV-2 cells
T1 construct: endogenous in cells; host or cells: BV-2 microglia-like cells
Protocol: After plating into 96 well plates, cell culture media was removed and BV-2 cells were incubated in extracellular solution (ECS) (140 mM NaCl, 4.5 mM KCl, 1.3 mM CaCl2, 10 mM HEPES, and 33 mM glucose; pH7.35, osmolarity 315 mOsm) containing YO-PRO-1 dye (2.5 μM, Invitrogen). After a 5 minute baseline recording, cells were stimulated with 3′-O-(4-benzoyl)benzoyl adenosine 5′-triphosphate (BzATP) (150 μM, Toronto Research Chemicals) and dye-uptake was recorded for 30 minutes. Cell viability was assessed immediately after the 30 minute recording by application of ionomycin (1 μM, Sigma). […] YO-PRO-1 fluorescent emission (491/509) was detected using a FilterMax F5 plate reader (Molecular Devices). Drugs used include (−)-norepinephrine (100 pM-1 μM, Sigma), probenecid (1 mM, Life Technologies), and Compound 1 (10 nM, Derksen et al). Drugs were bath applied in ECS containing YO-PRO-1 dye and incubated at 37° C. for 10 minutes prior to BzATP stimulation. Fluorescent emission at 30 minutes post-BzATP was calculated as an average of the entire imaging field as percent change from baseline, and responses at 30 minutes were averaged over multiple independent experiments. Individual traces of BV-2 YO-PRO-1 dye uptake were taken at 10 minute intervals and represent the average response of all BV-2 cells in the recorded view from a subset of experiments.
BV-2 microglia-like cells were maintained in DMEM (Gibco) containing 5% fetal bovine serum (Gibco) and 1% penicillin-streptomycin (Gibco) with 5% CO2.
The compounds tested were designed to more readily penetrate the blood brain barrier and were therefore predicted to require a lower dose to produce similar effects. Prior to testing the compounds in animals, the compounds were first tested in BV2 microglia-like cells using the YO-PRO-1 Dye Uptake Assay. By using this assay, Panx1 channel activity in response to BzATP stimulation of P2X7, an upstream receptor that causes Panx1 pore formation can be assessed. YO-PRO-1 is a large molecular weight dye that can only enter the cell through large pore ion channels such as Panx1, therefore its uptake correlates with Panx1 channel opening. BzATP stimulation causes a significant increase in YO-PRO-1 dye uptake in cells pre-treated with ECS and vehicle solution (0.1% DMSO) (FIG. 1, B).

C57BL/6J mice [1] = assay: Naloxone-precipitated morphine withdrawal, composite withdrawal score; type: in vivo; conditions: for Withdrawal behaviors: 60 minutes prior to naloxone
Protocol: Adult male C57BL/6J (7-9 weeks) mice were used. Mice were housed under 12/12 hour light/dark cycles with ad libitum access to food and water. Mice were randomly allocated to different test groups. All experiments were approved by the University of Calgary Animal Care Committee and are in accordance with the guidelines of the Canadian Council on Animal Care.
Morphine sulfate (MS, PCCA) prepared in 0.9% sterile saline solution was injected i.p. into male C57BLJ6J (20-30g) mice. Mice received ascending doses of morphine (i.p.) at 8 hours intervals: day 1, 10mg/kg; day 2, 20 mg/kg; day 3, 30 mg/kg; day 4, 40mg/kg. On day 5, mice received a morning injection of morphine (50 mg/kg). A subset of mice received probenecid (15, 25, and 50 mg/kg i.p., Invitrogen) or Compound 1 (0.1, 0.5 and 1 mg/kg) 1 hour following morphine. Mice then received i.p. naloxone (2 mg/kg, naloxone hydrochloride dihydrate, Sigma) 2 hours following morphine to rapidly induce opioid withdrawal. Control mice received equivalent volumes of 0.9% saline or appropriate vehicle solution (0.1% DMSO in saline) and were challenged with naloxone on day 5. Withdrawal behaviors were then scored for 30 minutes post naloxone injection. Behaviors were scored for occurrence and then scaled for severity at 5-minute intervals. Behaviors that were assigned a standardized score between 0-3 depending on severity were jumping, headshakes, wet-dog shakes, chewing/licking, and teeth chattering. Behaviors that were scored 1 point for presence during a 5-minute interval include piloerection and tremors/twitching. The mice were then weighed following the 30 minutes, and the weight difference was assigned a standardized score dependent on the weight change between 0-3 as well. The scaled and present/absent signs were compiled over the 30 minutes to produce a composite withdrawal score.
All data are presented as the mean±standard error mean (s.e.m), and each circle represents an individual animal or experiment. Tests of statistical difference were performed with GraphPad Prism 6 using either an ordinary one-way ANOVA with posthoc Dunnet test, or a two-way ANOVA with post hoc Sidak test. Sample sizes are consistent with those reported in similar studies and provide sufficient power to detect changes with the appropriate statistical analysis. For all experiments, a criterion a level was set at 0.05.

C57BL/6 mice = assay: Conditioned place aversion (CPA) after naloxone-precipitated withdrawal; type: in vivo; conditions: for CPA: 0.1 mg/kg i.p. as printed
From the text: Adult male C57BL/6 mice (7-14 weeks old) were used for conditioned place aversion experiments (CPA). Animals were group housed under reverse light-dark cycle with ad libitum access to food and water and were randomly allocated to different test groups. All procedures were approved by the University of Calgary and Washington University Animal Care Committees and are in accordance with the guidelines of the Canadian Council on Animal Care and the US National Institutes of Health Guide for the Care of Use of Laboratory Animals.
Place conditioning was performed in a custom-built clear plexiglass apparatus (28×28×19 cm) divided into two conditioning chambers distinct in tactile and visual cues. All locomotor behaviours were recorded using monochrome GigE cameras and quantified offline using EthoVision XT 11 software (Noldus). The CPA score was calculated by subtracting time spent in the conditioned chamber during baseline (pre-test) from time spent in the same chamber postconditioning. Mice were placed in a two-chamber conditioning apparatus and allowed free access to both chambers for 15 min to assess baseline preference. Mice were treated with escalating doses of morphine, control animals received equivalent volumes of 0.9% sterile saline. Two hours after the final morphine or saline injection on day 5, mice were injected with naloxone and confined to one side of the conditioning apparatus for 30 min. The conditioned place aversion (CPA) test occurred 1 and 7 days post-conditioning, where mice were allowed free access to the conditioning apparatus for 15 min. […]
Unpaired t tests were applied to compare differences between two groups, one-way ANOVA with Bonferroni post hoc tests were applied to compare differences between three or more groups. […] All data are expressed as mean±SEM. […] After assessing the normality of sample data using Shapiro-Wilk test, statistical significance was determined by two-way repeated-measures ANOVA followed by two-tailed Sidak post hoc test. All data were presented as mean±SEM and analyzed using GraphPad Prism 9 (GraphPad Software, Inc., California).

C57BL/6J mice [2] = assay: Naloxone-precipitated morphine withdrawal, composite withdrawal score; type: in vivo; conditions: 0.5 mg/kg, 30 minutes before withdrawal

T1 sequence (Q9JIP4 whole entry): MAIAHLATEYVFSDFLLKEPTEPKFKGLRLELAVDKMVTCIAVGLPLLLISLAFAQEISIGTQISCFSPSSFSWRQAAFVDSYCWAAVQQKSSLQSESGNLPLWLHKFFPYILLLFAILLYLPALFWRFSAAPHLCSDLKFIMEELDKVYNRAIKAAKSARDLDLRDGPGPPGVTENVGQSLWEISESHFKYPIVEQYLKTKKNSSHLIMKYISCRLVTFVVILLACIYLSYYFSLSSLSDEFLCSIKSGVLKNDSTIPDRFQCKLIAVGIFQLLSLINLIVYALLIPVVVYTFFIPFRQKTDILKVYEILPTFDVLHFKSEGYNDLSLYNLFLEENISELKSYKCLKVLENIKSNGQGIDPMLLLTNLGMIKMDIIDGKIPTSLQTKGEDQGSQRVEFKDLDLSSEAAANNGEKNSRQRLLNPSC

Potency at inhibiting Panx1 channel opening relative to probenecid (Panx1 channel): more potent than probenecid
Concentration blocking Panx1 channel activity, fold lower than probenecid (Panx1 channel; Compound 1 10 nM vs probenecid 1 mM): 100,000 fold
Panx1 channel activity (BzATP-stimulated YO-PRO-1 dye uptake) (Panx1 channel; Compound 1 10 nM, 10 min pre-treatment, BzATP 150 μM, 30 min): significantly blocked
SMILES: CCCN(CCC)S(=O)(=O)c1ccc(C(O)(C(F)(F)F)C(F)(F)F)cc1 [Compound 1, 4-(1,1,1,3,3,3-hexafluoro-2-hydroxypropan-2-yl)-N,N-dipropylbenzenesulfonamide]
Withdrawal behaviors (C57BL/6J mice [1]; 0.1 mg/kg): significantly attenuated
Withdrawal behaviors (C57BL/6J mice [1]; 0.5 mg/kg): significantly attenuated
Withdrawal behaviors (C57BL/6J mice [1]; 1 mg/kg): significantly attenuated
Effective dose, fold lower than probenecid (C57BL/6J mice [1]; 0.1-1 mg/kg vs probenecid 50 mg/kg): 50-500 fold
CPA (C57BL/6 mice; 1 day after naloxone-precipitated withdrawal): significantly less CPA
CPA (C57BL/6 mice; 1 day and 7 days after naloxone-precipitated withdrawal): significantly less CPA
CPA score (aversion to the naloxone-paired chamber) (C57BL/6 mice; 0.5 mg/kg i.p., morphine-dependent mice, vs vehicle): significant reduction in aversion
Withdrawal behaviors (C57BL/6J mice [2]): not effective
